Counter-ions that a name gives are not always drawn. Like-named read-outs stand apart in the source and are kept apart here. Peptide text beside a SMILES is read from it. * marks the point of attachment. Cbz = O=C(OCc1ccccc1)*
Tested on: SARS-CoV-2
Assay: microbe, parasite or virus in culture
Format: cell-based
Conditions: for Emax: read-out: Maximum confluence reached (%)
[1] = Severe acute respiratory syndrome coronavirus 2, 120 h

## CC[C@@H](C(=O)[C@@H](C)[C@@H](O)[C@H](C)[C@@H]1O[C@@H]([C@@H](CC)C(=O)O)CC[C@@H]1C)[C@H]1O[C@]2(C=C[C@@H](O)[C@]3(CC[C@@](C)([C@H]4CC[C@](O)(CC)[C@H](C)O4)O3)O2)[C@H](C)C[C@@H]1C [Compound 93, 2(R)-[6(R)-[5(R)-[(2S,5S,7R,9S,10S,12R,15R)-2-[5(R)-Ethyl-5-hydroxy-6(S)-methyltetrahydropyran-2(R)-yl]-15-hydroxy-2,10,12-trimethyl-1,6,8-trioxadispiro[4.1.5.3]pentadec-13-en-9-yl]-2(S)-hydroxy-1(S),3(S)-dimethyl-4-oxoheptyl]-5(S)-methyltetrahydropyran-2(R)-yl]butyric acid]
[1]
  Emax: 34.4%

## CCCc1c(-c2ccc(O)cc2)nn(-c2ccc(O)cc2)c1-c1ccc(O)cc1 [Compound 88, 1,3,5-Tris(4-hydroxyphenyl)-4-propyl-1H-pyrazole]
[1]
  IC50: 8.3 µM
  Emax: 48.2%

## N#Cc1cccc(C#N)c1-c1nc2c3ccc(Cl)cc3c3ccccc3c2[nH]1 [Compound 64, 2-(6-Chloro-1H-phenanthro[9,10-d]imidazol-2-yl)benzene-1,3-dicarbonitrile]
[1]
  Emax: 98.5%

## CC(C)(C)c1cc(C=C(C#N)C#N)cc(Br)c1O [Compound 99, 2-(3-Bromo-5-tert-butyl-4-hydroxybenzylidene)propanedinitrile]
[1]
  IC50: 7.23 µM
  Emax: 37.3%

## O=C(O)Cc1cccc(OCCCN(Cc2cccc(C(F)(F)F)c2Cl)CC(c2ccccc2)c2ccccc2)c1 [Compound 71, 2-[3-[3-[N-[2-Chloro-3-(trifluoromethyl)benzyl]-N-(2,2-diphenylethyl)amino]propoxy]phenyl]acetic acid]
[1]
  Emax: 38%

## CC(C)C(=O)OCC(=O)[C@@]12O[C@H](C3CCCCC3)O[C@@H]1C[C@H]1[C@@H]3CCC4=CC(=O)C=C[C@]4(C)[C@H]3[C@@H](O)C[C@@]12C [Compound 96, 16alpha,17alpha-[(R)-Cyclohexylmethylenedioxy]-11beta-hydroxy-21-(isobutyryloxy)pregna-1,4-dien-3-one]
[1]
  IC50: 47 µM
  Emax: 35.2%

## Nc1nc(N)c2nc(CNc3ccc(C(=O)N[C@@H](CCC(=O)O)C(=O)O)cc3)cnc2n1 [Compound 10, N-[4-(2,4-diamino-6-pteridinylmethylamino)benzolyl]-L-glutamic acid]
[1]
  Emax: 72.5%

## COc1cc2c(NC3CCN(C(C)C)CC3)nc(N3CCC(F)(F)CC3)nc2cc1OCCCN1CCCC1 [Compound 95, 2-(4,4-Difluoropiperidin-1-yl)-6-methoxy-N-[1-(propan-2-yl)piperidin-4-yl]-7-[3-(pyrrolidin-1-yl)propoxy]quinazolin-4-amine]
[1]
  Emax: 31.1%

## NC(=NC1C2CC3CC(C2)CC1C3)Nc1ccc(I)cc1 (stereo not shown) [Compound 49, 2-(2-adamantyl)-1-(4-iodophenyl)guanidine]
[1]
  Emax: 81.8%

## CC(C)COCC(CN(Cc1ccccc1)c1ccccc1)N1CCCC1 (stereo not shown) [Compound 78, 1-[1-(N-Benzylanilino)-3-isobutoxy-2-propyl]pyrrolidine monohydrochloride monohydrate]
[1]
  Emax: 30.4%

## CC(C)(C)c1cc(C=C(C#N)C#N)cc(C(C)(C)C)c1O [Compound 103, (3,5-Di-tert-butyl-4-hydroxybenzylidene)malononitrile]
[1]
  IC50: 205 µM

## Cc1ccc(C(=O)Nc2cccc(C(F)(F)F)c2)cc1Nc1nc(-c2cccnc2)nc2c1cnn2C [Compound 62, 4-methyl-3-{[1-methyl-6-(3-pyridinyl)-1H-pyrazolo[3,4-d]pyrimidin-4-yl]amino}-N-[3-(trifluoromethyl)phenyl]benzamide]
[1]
  Emax: 88.4%

## Nc1nc(=S)c2ncn([C@@H]3O[C@H](CO)[C@@H](O)[C@H]3O)c2[nH]1 [Compound 55, 2-amino-9-[(2R,3R,4S,5R)-3,4-dihydroxy-5-(hydroxymethyl)oxolan-2-yl]-3H-purine-6-thione]
[1]
  Emax: 51.5%

## Nc1ncc(-c2ccnc(Nc3ccncc3)n2)c(CC2CC2)n1 [Compound 20, 4'-(Cyclopropylmethyl)-N2-(pyridin-4-yl)-4,5'-bipyrimidine-2,2'-diamine]
[1]
  Emax: 98.2%

## CCN(CC)CCOc1ccc(C(=C(Cl)c2ccccc2)c2ccccc2)cc1 [Compound 82, 2-[4-(2-Chloro-1,2-diphenylvinyl)phenoxy]-N,N-diethylethanamine citrate]
[1]
  Emax: 54.7%

## CC(C)c1cnn2c(NCc3ccccc3)cc(NCCCCCCN)nc12 [Compound 48, N5-(6-Aminohexyl)-N7-benzyl-3-isopropylpyrazolo[1,5-a]pyrimidine-5,7-diamine]
[1]
  Emax: 47.3%

## Cn1c(Nc2ccc(C(F)(F)F)cc2)nc2cc(Oc3ccnc(-c4nc(C(F)(F)F)c[nH]4)c3)ccc21 [Compound 70, 1-Methyl-N-[4-(trifluoromethyl)phenyl]-5-[2-[4-(trifluoromethyl)-1H-imidazol-2-yl]pyridin-4-yloxy]-1H-benzimidazol-2-amine]
[1]
  Emax: 44.1%

## Cc1cc(O[C@@H](CCC(F)(F)F)c2ccc(C(=O)NCCC(=O)O)cc2)cc(C)c1-c1ccc(C(C)(C)C)cc1 [Compound 57, N-(4-[(1S)-1-[(4'-tert-Butyl-2,6-dimethylbiphenyl-4-yl)oxy]-4,4,4-trifluorobutyl]benzoyl)-beta-alanine]
[1]
  Emax: 39.5%

## O=C(Nc1ccc(Cl)cc1)Nc1ccc(Cl)c(Cl)c1 [Compound 100, 3-(4-Chlorofenil)-1-(3,4-diclorofenil)urea]
[1]
  Emax: 47.2%

## COc1ccc2cc1Oc1ccc(cc1)C[C@H]1c3cc(c(OC)cc3CCN1C)Oc1c(OC)c(OC)cc3c1[C@H](C2)N(C)CC3 [Compound 79, (1beta)-(S,S)-6,6',7,12-Tetramethoxy-2,2'-dimethylberbaman]
[1]
  Emax: 99.6%

## CCC(=C(c1ccc(O)cc1)c1ccc(OCCNC)cc1)c1ccccc1 [Compound 91, 4-[1-[4-[2-(Methylamino)ethoxy]phenyl]-2-phenyl-1-butenyl]phenol hydrochloride]
[1]
  IC50: 6.34 µM
  Emax: 35.7%

## (1R,2S,3R)-3-(6-Amino-9H-purin-9-yl)-1,2-cyclopentanediol [Compound 75]
  Maximum confluence reached (%): 33.14%
read-out: IC50
  IC50: 0.36 µM

## CN(C)CCC=C1c2ccccc2C=Cc2ccccc21 [Compound 90, 3-(5H-Dibenzo[a,d]cyclohepten-5-ylidene)-N,N-dimethylpropan-1-amine hydrochloride]
[1]
  IC50: 12.1 µM
  Emax: 70.2%

## CN1CCN(CC/C=C2/c3ccccc3Sc3ccc(S(=O)(=O)N(C)C)cc32)CC1 [Compound 109, (Z)-N,N-Dimethyl-9-[3-(4-methyl-1-piperazinyl)propylidene]thioxanthene-2-sulfonamide]
[1]
  Emax: 36.5%

## CCN(CC)CCOc1ccc2c(c1)C(=O)c1cc(OCCN(CC)CC)ccc1-2 [Compound 84, 2,7-Bis[2-(diethylamino)ethoxy]-9H-fluoren-9-one]
[1]
  Emax: 68.9%

## CCCCOCCOc1ccc(-c2ccc3c(c2)C=C(C(=O)Nc2ccc([S@@+]([O-])Cc4cncn4CCC)cc2)CCCN3CC(C)C)cc1 [Compound 65, (-)-(S)-8-[4-(2-Butoxyethoxy)phenyl]-1-isobutyl-N-[4-(1-propyl-1H-imidazol-5-ylmethylsulfinyl)phenyl]-1,2,3,4-tetrahydro-1-benzazocine-5-carboxamide]
[1]
  IC50: 55 µM
  Emax: 70.9%

## CN1CCN(CCCN2c3ccccc3Sc3ccc(C(F)(F)F)cc32)CC1 [Compound 94, 10-[3-(4-Methylpiperazin-1-yl)propyl]-2-(trifluoromethyl)-10H-phenothiazine dihydrochloride]
[1]
  Emax: 38%

## COc1cc2ncnc(Nc3cccc(Br)c3)c2cc1OC [Compound 68, 4-(3-Bromophenylamino)-6,7-dimethoxyquinazoline]
[1]
  Emax: 54.5%

## O=C(CCCN1CCC2(CC1)C(=O)N(Cc1cccc(F)c1)CN2c1ccccc1)c1ccc(F)cc1 [Compound 46, 3-[(3-fluorophenyl)methyl]-8-[4-(4-fluorophenyl)-4-oxobutyl]-1-phenyl-1,3,8-triazaspiro[4.5]decan-4-one]
[1]
  Emax: 43%

## O=C(Nc1ccc(Cl)c(Cl)c1)Nc1ccc(Cl)c(Cl)c1 [Compound 72, 1,3-Bis(3,4-dichlorophenyl)urea]
[1]
  Emax: 45.9%

## (4R,4aS)-18-Ethenyl-4,4a-dihydro-3,4-bis(methoxycarbonyl)-4a,8,14,19-tetramethyl-24H,26H-benzo[b]porphine-9,13-dipropanoic acid monomethyl ester [Compound 39]
  Maximum confluence reached (%): 89.5%
read-out: IC50
  IC50: 30 µM

## Nc1nc(NC[C@H]2CC[C@H](CNS(=O)(=O)c3cccc4ccccc34)CC2)nc2ccccc12 [Compound 97, N-[[trans-4-[[(4-Amino-2-quinazolinyl)amino]methyl]cyclohexyl]methyl]-1-naphthalenesulfonamide]
[1]
  Emax: 39.2%

## O=C(NCCN1CCC2(CC1)C(=O)NCN2c1cccc(F)c1)c1ccc2ccccc2c1 [Compound 56, N-[2-[1-(3-Fluorophenyl)-4-oxo-1,3,8-triazaspiro[4.5]dec-8-yl]ethyl]naphthalen-2-carboxamide]
[1]
  Emax: 98.5%

## CC(C)C[C@@H](C=O)NC(=O)[C@H](CC(C)C)NC(=O)[C@H](CC(C)C)NC(=O)OCc1ccccc1 [Compound 52, Benzyloxycarbonyl-L-leucyl-L-leucyl-L-leucinal] (Cbz-Leu-Leu-Leu-aldehyde)
[1]
  Emax: 82.8%

## COc1ccccc1[C@H](Cn1c(=O)n(C(C)(C)C(=O)O)c(=O)c2c(C)c(-c3ncco3)sc21)OC1CCOCC1 [Compound 61, 2-[1-[(2R)-2-(2-Methoxyphenyl)-2-(tetrahydro-2H-pyran-4-yloxy)ethyl]-5-methyl-6-(1,3-oxazol-2-yl)-2,4-dioxo-1,4-dihydrothieno[2,3-d]pyrimidin-3(2H)-yl]-2-methylpropanoic acid]
[1]
  Emax: 78.2%

— patent EP3964206A1, “COMPOUNDS FOR THE TREATMENT OF COVID-19” (priority 2020, dated 2022)
